Values after ≈ are worked out from the molar mass of the structure shown. Read-outs that look alike come from different tables or passages of the source.
Test system: C. difficile strain R20291
Test: MIC determination by broth microdilution
Format: cell-based
Conditions: for MIC: Clostridioides difficile; for MIC (anti-C. difficile activity): unit printed as g/mL
[1] = R20291, 24 h, Table 1, BHI broth, 24 h anaerobic, 37° C., read-out: R20291 MIC
[2] = R20291, 24 h, read-out: R20291 MIC
[3] = Table 2, BHI broth, 24 h anaerobic, 37° C.
[4] = R20291, 24 h, Table 2, BHI broth, 24 h anaerobic, 37° C., read-out: R20291 MIC
[5] = R20291, running text, read-out: MIC (anti-C. difficile activity)
[6] = R20291, Table 3, read-out: R20291 MIC

Experimental: Strain R20291 was grown anaerobically overnight in BHI broth in a Don Whitley A35 anaerobic at 37° C. Compounds were serially two-fold diluted (100-0.1 μg/mL) and incubated anaerobically for 1 h before being inoculated with 100 μL of bacteria prepared as a 1:100 dilution of the overnight culture. After 24 h of anaerobic incubation at 37° C., MICs were recorded as the lowest concentration of compound that inhibited visible growth. MICs reported were performed in biological duplicates and values are shown as a range, where found.

O=C(NCc1nc(-c2ccc(Br)cc2)c[nH]1)Nc1ncc(Sc2ncccn2)s1 [Compound 5b]
MIC [1]: 1.56 to 3.12 µg/mL (≈ 3.19 to 6.39 µM)

O=C(NCc1nc(-c2ccc(Br)cc2)c[nH]1)Nc1ncc(Sc2ccccc2)s1 [Compound 5c]
MIC [2]: 1.56 to 3.12 µg/mL (≈ 3.21 to 6.41 µM)

O=C(NCc1nc(-c2ccc(Br)cc2)c[nH]1)Nc1ncc(Sc2ccc(Br)cc2)s1 [Compound 5d]
MIC [2]: 25 µg/mL (≈ 44.2 µM)

O=C(NCc1nc(-c2ccc(Br)cc2)c[nH]1)Nc1ncc(Sc2ccc(Cl)cn2)s1 [Compound 5e]
MIC [1]: 3.12 µg/mL (≈ 5.98 µM) | MIC (anti-C. difficile activity): 3.12 µg/mL (≈ 5.98 µM)

O=C(NCc1nc(-c2ccc(Br)cc2)c[nH]1)Nc1ncc(Sc2ccc(C(F)(F)F)cn2)s1 [Compound 5f]
MIC (anti-C. difficile activity): 3.12 µg/mL (≈ 5.62 µM)

O=C(NCc1nc(-c2ccc(Br)cc2)c[nH]1)Nc1ncc(Sc2ncccc2C(F)(F)F)s1 [Compound 5g]
MIC [1]: 1.56 µg/mL (≈ 2.81 µM)

O=C(NCc1nc(-c2ccc(Br)cc2)c[nH]1)Nc1ncc(Sc2ccc3ccccc3n2)s1 [Compound 5h]
MIC [1]: > 50 µg/mL

O=C(NCc1nc(-c2ccc(Br)cc2)c[nH]1)Nc1ncc(Sc2nc3ccccc3s2)s1 [Compound 5i]
MIC [2]: > 50 µg/mL

O=C(NCc1nc(-c2ccc(Br)cc2)c[nH]1)Nc1nc2ccccc2s1 [Compound 6a]
activity against C. difficile in MIC testing (in words): inactive | MIC [2]: > 50 µg/mL

O=C(NCc1nc(-c2ccc(Br)cc2)c[nH]1)Nc1nc2c(C(F)(F)F)cccc2s1 [Compound 6b]
R20291 MIC [3]: 1.56 µg/mL

O=C(NCc1nc(-c2ccc(Br)cc2)c[nH]1)Nc1nc2cc(C(F)(F)F)ccc2s1 [Compound 6c]
MIC [4]: 3.12 µg/mL (≈ 6.29 µM)

O=C(NCc1nc(-c2ccc(Br)cc2)c[nH]1)Nc1nc2c(C(F)(F)F)cccc2s1 [Compound 6e]
R20291 MIC [3]: 12.5 µg/mL

CS(=O)(=O)c1ccc2nc(NC(=O)NCc3nc(-c4ccc(Br)cc4)c[nH]3)sc2c1 [Compound 6f]
MIC [5]: > 100 µg/mL

O=C(NCc1nc(-c2ccc(Br)cc2)c[nH]1)Nc1nc2ccc(Br)cc2s1 [Compound 6g]
MIC [4]: 50 µg/mL (≈ 98.6 µM)

O=C(NCc1nc(-c2ccc(Br)cc2)c[nH]1)Nc1nc2ccc(Cl)cc2s1 [Compound 6h]
MIC [5]: 6.25 µg/mL (≈ 13.5 µM)

O=C(NCc1nc(-c2ccc(Br)cc2)c[nH]1)Nc1nc2c(F)cc(F)cc2s1 [Compound 6j]
MIC [5]: 12.5 µg/mL (≈ 26.9 µM)

CCOc1ccc2nc(NC(=O)NCc3nc(-c4ccc(Br)cc4)c[nH]3)sc2c1 [Compound 6k]
MIC [4]: 12.5 µg/mL (≈ 26.5 µM)

O=C(NCc1nc(-c2ccc(Br)cc2)c[nH]1)Nc1nc2ccc(OC(F)(F)F)cc2s1 [Compound 6l]
MIC [5]: 12.5 to 25 µg/mL (≈ 24.4 to 48.8 µM)

S=C(NCc1nc(-c2ccc(Br)cc2)c[nH]1)Nc1ncc(Sc2ccccn2)s1 [Compound 7a]
MIC [5]: 0.39 µg/mL (≈ 0.775 µM)

O=C(NCc1nc(-c2ccccc2)n[nH]1)Nc1ncc(Sc2ccccn2)s1 [Compound 8a]
MIC [6]: > 50 µg/mL

O=C(NCc1nc2ccccc2c(=O)[nH]1)Nc1ncc(Sc2ccccn2)s1 [Compound 8c]
MIC [6]: > 50 µg/mL

CN[C@H](CC(C)C)C(=O)N[C@H]1C(=O)N[C@@H](CC(N)=O)C(=O)N[C@H]2C(=O)N[C@H]3C(=O)N[C@H](C(=O)N[C@H](C(=O)O)c4cc(O)cc(O)c4-c4cc3ccc4O)[C@H](O)c3ccc(c(Cl)c3)Oc3cc2cc(c3O[C@@H]2O[C@H](CO)[C@@H](O)[C@H](O)[C@H]2O[C@H]2C[C@](C)(N)[C@H](O)[C@H](C)O2)Oc2ccc(cc2Cl)[C@H]1O [Vancomycin, reference compound]
MIC [2]: 0.39 to 0.78 µg/mL (≈ 0.269 to 0.538 µM) | R20291 MIC [3]: 0.39 to 0.78 µg/mL

From patent publication US20260265242A1, “FABK INHIBITOR COMPOSITIONS” (The Texas A&M University System, priority 2023, published 2026)
